Assay results: patent publication US9744164B2, “Neuroprotective polyphenol analogs” (Salk Institute for Biological Studies, priority 2011, dated 2017)

What follows are compounds tested on N9 microglial cells (assay: anti-inflammatory assay, LPS-induced microglial activation (NO release)). Conditions: bacterial lipopolysaccharide, derivative 1-10 μM, 24 hr.
Assay type: cell-based, mouse
Protocol: Anti-inflammatory assay. Mouse N9 microglial cells plated in DME with 7.5% DFCS were treated with 10 μg/ml bacterial lipopolysaccharide (Sigma) alone or in the presence of the Fisetin derivatives (1-10 μM) or Fisetin (10 μM) as a positive control. After 24 hr the medium was removed, spun briefly to remove floating cells and 100 μl assayed for NO using 100 μl of the Griess Reagent (Sigma) in a 96 well plate. After incubation for 10 min at room temperature the absorbance at 550 nm was read on a microplate reader.
Three secondary screens allowed assessment of three key activities of Fisetin that are highly relevant to stroke, as well as other neurological disorders: maintenance of glutathione (GSH), the major endogenous cellular antioxidant, inhibition of LPS-induced microglial activation, an indicator of anti-inflammatory activity and PC12 cell differentiation, a measure of neurotrophic activity. All of these activities are relevant to the nerve cell loss seen in stroke (Gelderblom, et al., Stroke. 2009, 40 (5), 1849-1857; Pandya, et al., Cent. Nerv. Syst. Agents. Med. Chem. (2011) Apr. 27; Lewerenz, et al., J. Neurochem. (2010) 113 (2), 502-504). […] To assess GSH maintenance, total intracellular GSH levels after a 24 hr treatment with the compound both in the absence and presence of glutamate, an inducer of GSH loss and oxidative stress (Tan, et al., Curr. Top. Med. Chem. (2001) 1, 497-506; Maher, et al., Free Radical Research. (2006) 40 (10), 1105-1111) was measured Inhibition of LPS-induced microglial activation was determined by treating N9 mouse microglial cells with LPS alone and in the presence of the compounds and assaying NO release into the medium 24 hr later (Zheng, et al., Int. Immunopharmacol. (2008) 8, (3), 484-494). PC12 cell differentiation was determined by treating PC12 cells with the compounds and looking at neurite outgrowth after 24 hr. In all cases, Fisetin was used as a positive control (Sagara, et al., J. Neurochem. (2004) 90, 1144-1155).
The roles of the four different hydroxyl groups in the activity of Fisetin were studied. […] Cell viability was determined after 24 hr by the MTT assay. The ability to maintain GSH (GSH) was determined by treating HT22 cells with different doses of each derivative (1-10 μM) in the presence of 5 mM glutamate. After 24 hr cell extracts were prepared and analyzed for total GSH. Fisetin (10 μM) was used as a positive control. The ability to induce PC12 cell differentiation (PC12 diff'n) was determined by treating PC12 cells in N2 medium with different doses of each derivative (1-10 μM) for 24 hr. Differentiation was assessed by visual inspection with Fisetin (10 μM) as a positive control. Anti-inflammatory activity (microglia) was assessed in N9 microglial cells treated with bacterial lipopolysaccharide alone or in the presence different doses of each derivative (1-10 μM) for 24 hr. Fisetin was used as a positive control. TEAC values, a measure of direct antioxidant activity, were determined using the ABTS+ decolorization assay.

Which “microglia (anti-inflammatory activity)” value does the source give for `COc1cc(-c2ccc(O)cc2O)nc2ccccc12` [CMS-083, 4-methoxy-2-(2,4-dihydroxyphenyl)quinoline] here?
The value was 84%.

Which “microglia (anti-inflammatory activity)” value does the source give for `Cc1cc2oc(-c3ccc(N4CCCC4)cc3)cc(=O)c2cc1C` [CMS-116, 6,7-dimethyl-2-(4-(pyrrolidin-1-yl)phenyl)-4H-chromen-4-one] here?
Its value is 2%.

`Cc1cc2oc(-c3ccc(O)cc3O)cc(=O)c2cc1C` [CMS-094, 2-(2,4-dihydroxyphenyl)-6,7-dimethyl-4H-chromen-4-one] was tested. Which “microglia (anti-inflammatory activity)” value did it give?
Its value is 5%.

Which “microglia (anti-inflammatory activity)” value does the source give for `COc1cc(-c2cc(=O)c3cc(C)c(C)cc3o2)ccc1O` [CMS-064, 2-(4-hydroxy-3-methoxyphenyl)-6,7-dimethyl-4H-chromen-4-one] here?
Its value is 41%.

With `O=c1cc(-c2ccc(N3CCCC3)cc2)oc2c1ccc1ccccc12` [CMS-115, 2-(4-(pyrrolidin-1-yl)phenyl)-4H-benzo[h]chromen-4-one] as the compound, how does the “microglia (anti-inflammatory activity)” value read?
The value was 23%.

Which “microglia (anti-inflammatory activity)” value does the source give for `O=c1c(O)c(-c2ccc(O)c(O)c2)oc2ccc3ccccc3c12` [CMS-041, 3-(3,4-dihydroxyphenyl)-2-hydroxy-1H-benzo[f]chromen-1-one] here?
The value was 87%.

With `Cc1cc2oc(-c3ccc(O)cc3O)c(O)c(=O)c2cc1C` [CMS-093, 2-(2,4-dihydroxyphenyl)-3-hydroxy-6,7-dimethyl-4H-chromen-4-one] as the compound, how does the “microglia (anti-inflammatory activity)” value read?
Its value is 0%.

`CC(C)Oc1cc(-c2ccc(O)cc2O)nc2ccccc12` [CMS-084, 4-isopropoxy-2-(2,4-dihydroxyphenyl)quinoline] was tested. Which “microglia (anti-inflammatory activity)” value did it give?
The value was 64%.

With `COc1cc(-c2cc(OC)c3ccccc3n2)ccc1O` [CMS-017, 4-methoxy-2-(4-hydroxy,3-methoxyphenyl)quinoline] as the compound, how does the “microglia (anti-inflammatory activity)” value read?
Its value is 90%.

With `Cc1cc2oc(-c3ccc(O)c(O)c3)c(O)c(=O)c2cc1C` [CMS-027, 2-(3,4-dihydroxyphenyl)-3-hydroxy-6,7-dimethyl-4H-chromen-4-one] as the compound, how does the “microglia (anti-inflammatory activity)” value read?
Its value is 82%.

How did the “microglia (anti-inflammatory activity)” value turn out when `COc1cc(-c2oc3cc(C)c(C)cc3c(=O)c2O)ccc1O` [CMS-069, 3-hydroxy-2-(4-hydroxy-3-methoxyphenyl)-6,7-dimethyl-4H-chromen-4-one] was run?
Its value is 77%.

For `CCOc1ccc(-c2oc3c(ccc4ccccc43)c(=O)c2O)cc1OCC` [CMS-036, 2-(3,4-diethoxyphenyl)-3-hydroxy-4H-benzo[h]chromen-4-one], which “microglia (anti-inflammatory activity)” value is on record?
The value was 13%.

How did the “microglia (anti-inflammatory activity)” value turn out when `COc1cc(-c2cc(=O)c3cc(C)c(C)cc3o2)ccc1OCc1ccccc1` [CMS-058, 2-(4-(benzyloxy)-3-methoxyphenyl)-6,7-dimethyl-4H-chromen-4-one] was run?
The value was 83%.

With `CC(C)Oc1cc(-c2ccc(N(C)C)cc2)nc2ccccc12` [CMS-112, 4-isopropoxy-2-(4-dimethylaminophenyl)quinoline] as the compound, how does the “microglia (anti-inflammatory activity)” value read?
The value was 71%.

Which “microglia (anti-inflammatory activity)” value does the source give for `COc1ccc(-c2oc3cc(C)c(C)cc3c(=O)c2O)cc1O` [CMS-092, 3-hydroxy-2-(3-hydroxy-4-methoxyphenyl)-6,7-dimethyl-4H-chromen-4-one] here?
Its value is 72%.

Which “microglia (anti-inflammatory activity)” value does the source give for `O=c1c(O)c(-c2ccc(N3CCCC3)cc2)oc2c1ccc1ccccc12` [CMS-114, 3-hydroxy-2-(4-(pyrrolidin-1-yl)phenyl)-4H-benzo[h]chromen-4-one] here?
The value was 26%.

How did the “microglia (anti-inflammatory activity)” value turn out when `COc1cc(-c2oc3c(ccc4ccccc43)c(=O)c2O)ccc1OCc1ccccc1` [CMS-065, 2-(4-(benzyloxy)-3-methoxyphenyl)-3-hydroxy-4H-benzo[h]chromen-4-one] was run?
Its value is 88%.

`CN(C)c1ccc(-c2cc(=O)c3ccc4ccccc4c3o2)cc1` [CMS-120, 2-(4-(dimethylamino)phenyl)-4H-benzo[h]chromen-4-one] was tested. Which “microglia (anti-inflammatory activity)” value did it give?
Its value is 35%.

`COc1cc(-c2ccc(N(C)C)cc2)nc2ccccc12` [CMS-109, 4-methoxy-2-(4-dimethylaminophenyl)quinoline] was tested. Which “microglia (anti-inflammatory activity)” value did it give?
Its value is 62%.

How did the “microglia (anti-inflammatory activity)” value turn out when `COc1cc(-c2ccccc2)nc2ccccc12` [CMS-021, 4-methoxy-2-phenylquinoline] was run?
The value was 6%.
